In US10487068B2, “Pyridazine derivatives as RORc modulators” (Genentech, Inc., priority 2015, dated 2019) one finds IC50 data, which are given here for 42 compounds.

The test addresses T1, RORc ligand binding domain (Homo sapiens, UniProt P51449).
T1 sequence (P51449 269-508 limits assumed): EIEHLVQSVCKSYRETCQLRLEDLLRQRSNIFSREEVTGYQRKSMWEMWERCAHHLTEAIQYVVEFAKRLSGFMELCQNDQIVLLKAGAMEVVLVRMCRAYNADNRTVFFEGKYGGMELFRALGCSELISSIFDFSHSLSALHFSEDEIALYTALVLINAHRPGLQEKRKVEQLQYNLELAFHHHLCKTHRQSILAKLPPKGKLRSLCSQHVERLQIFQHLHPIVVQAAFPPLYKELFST
Put plainly: In Vitro RORc Ligand Binding Assay. Particulars: RORc IC50, radioligand 25-[3H]hydroxycholesterol 6 nM; 0.6 ug/mL RORc receptor; 3 h at 25° C.

Compound `CC1(C)[C@H]2CC[C@]1(c1ccnc(OCCO)n1)c1nnc(-c3c(F)cccc3F)cc12` [Example 333] returned an IC50 of 4.8 nM.

The compound `CC1(C)[C@H]2CC[C@]1(c1ccnc(N3CCO[C@@H](CO)C3)n1)c1nnc(-c3c(F)cccc3F)cc12` [Example 334] registered an IC50 of 5 nM. This IC50 and that of the compound before are within 1.5-fold of each other.

With `CC1(C)[C@H]2CC[C@]1(c1ccnc(N3CCO[C@H](CO)C3)n1)c1nnc(-c3c(F)cccc3F)cc12` [Example 335], the IC50 is 6.2 nM.

`CC1(C)[C@H]2CC[C@]1(c1ccnc(N3CC4(CCO4)C3)n1)c1nnc(-c3c(F)cccc3F)cc12` [Example 336] had an IC50 of 13 nM.

Compound `CC1(C)[C@H]2CC[C@]1(c1ccnc(N3CCNC(=O)C3)n1)c1nnc(-c3c(F)cccc3F)cc12` [Example 337] yielded an IC50 of 6 nM.

Compound `CC1(C)[C@H]2CC[C@]1(c1ccnc(N3CCN(S(C)(=O)=O)CC3)n1)c1nnc(-c3c(F)cccc3F)cc12` [Example 338] gave an IC50 of 3.2 nM.

In turn, `CC1(C)[C@H]2CC[C@]1(c1cccc(-c3nc([C@@H](O)C(F)(F)F)n[nH]3)n1)c1nnc(-c3c(F)cccc3F)cc12` [Example 339, (R)-1-(5-(6-((5R,8S)-3-(2,6-difluorophenyl)-9,9-dimethyl-5,6,7,8-tetrahydro-5,8-methanocinnolin-8-yl)pyridin-2-yl)-1H-1,2,4-triazol-3-yl)-2,2,2-trifluoroethanol] showed a half-inhibitory concentration (IC50) of 5.6 nM. Against the preceding compound, the IC50 is about 1.7-fold higher.

The compound `CC1(C)[C@H]2CC[C@]1(c1cccc(-c3nc([C@H](O)C(F)(F)F)n[nH]3)n1)c1nnc(-c3c(F)cccc3F)cc12` [Example 340, (S)-1-(5-(6-((5R,8S)-3-(2,6-difluorophenyl)-9,9-dimethyl-5,6,7,8-tetrahydro-5,8-methanocinnolin-8-yl)pyridin-2-yl)-1H-1,2,4-triazol-3-yl)-2,2,2-trifluoroethanol] came in with an IC50 of 3.6 nM. This IC50 lies about 1.6-fold lower than the previous one.

In the case of `CC1(C)[C@H]2CC[C@]1(c1cncc(-c3nc(C#N)co3)n1)c1nnc(-c3c(F)cccc3F)cc12` [Example 341, 2-(6-((5R,8S)-3-(2,6-difluorophenyl)-9,9-dimethyl-5,6,7,8-tetrahydro-5,8-methanocinnolin-8-yl)pyrazin-2-yl)oxazole-4-carbonitrile], the IC50 came out at 3.4 nM. This IC50 and that of the compound before are within 1.5-fold of each other.

In turn, `CC(C)(O)c1cnc(-c2cncc([C@@]34CC[C@@H](c5cc(-c6c(F)cccc6F)nnc53)C4(C)C)n2)o1` [Example 342, 2-(2-(6-((5R,8S)-3-(2,6-difluorophenyl)-9,9-dimethyl-5,6,7,8-tetrahydro-5,8-methanocinnolin-8-yl)pyrazin-2-yl)oxazol-5-yl)propan-2-ol] displayed an IC50 of 11.7 nM.

Regarding `C=C(C)c1cnc(-c2cncc([C@@]34CC[C@@H](c5cc(-c6c(F)cccc6F)nnc53)C4(C)C)n2)o1` [Example 343, 2-(6-((5R,8S)-3-(2,6-difluorophenyl)-9,9-dimethyl-5,6,7,8-tetrahydro-5,8-methanocinnolin-8-yl)pyrazin-2-yl)-5-(prop-1-en-2-yl)oxazole], the IC50 amounted to 1.6 nM.

Compound `CC(C)(C)OC(=O)N1CC=C(c2nccc([C@@]34CC[C@@H](c5cc(-c6c(F)cccc6F)nnc53)C4(C)C)n2)CC1` [Example 344] yielded an IC50 of 1.7 nM.

Consider `CC(C)(C)OC(=O)N1CCC(c2nccc([C@@]34CC[C@@H](c5cc(-c6c(F)cccc6F)nnc53)C4(C)C)n2)CC1` [Example 345], for which the IC50 came to 13 nM.

As to `CC(C)OC(=O)c1coc(-c2cncc([C@@]34CC[C@@H](c5cc(-c6c(F)cccc6F)nnc53)C4(C)C)n2)n1` [Example 346, isopropyl 2-(6-((5R,8S)-3-(2,6-difluorophenyl)-9,9-dimethyl-5,6,7,8-tetrahydro-5,8-methanocinnolin-8-yl)pyrazin-2-yl)oxazole-4-carboxylate], the IC50 turned out to be 3.7 nM.

Compound `CC(C)(O)c1ncc(-c2cncc([C@@]34CC[C@@H](c5cc(-c6c(F)cccc6F)nnc53)C4(C)C)n2)o1` [Example 347, 2-(5-(6-((5R,8S)-3-(2,6-difluorophenyl)-9,9-dimethyl-5,6,7,8-tetrahydro-5,8-methanocinnolin-8-yl)pyrazin-2-yl)oxazol-2-yl)propan-2-ol] displayed an IC50 of 6.8 nM.

`C[C@@H](O)c1ccn(-c2nccc([C@@]34CC[C@@H](c5cc(-c6c(F)cccc6F)nnc53)C4(C)C)n2)n1` [Example 348] returned an IC50 of 10.6 nM.

As to `CC1(C)[C@H]2CC[C@]1(c1ccnc(C3CCN(S(C)(=O)=O)CC3)n1)c1nnc(-c3c(F)cccc3F)cc12` [Example 349], the IC50 is 6.3 nM. Compared with the last compound, the IC50 is about 1.7-fold lower.

In turn, `CC(C)(O)c1coc(-c2nccc([C@@]34CC[C@@H](c5cc(-c6c(F)cccc6F)nnc53)C4(C)C)n2)n1` [Example 350] came in with an IC50 of 16.4 nM. Against the preceding compound, the IC50 is about 2.6-fold higher.

With `CC(=O)N1CCC(c2nccc([C@@]34CC[C@@H](c5cc(-c6c(F)cccc6F)nnc53)C4(C)C)n2)CC1` [Example 351], the IC50 was 10.5 nM.

With `Cc1nc(C)n(-c2nccc([C@@]34CC[C@@H](c5cc(-c6c(F)cccc6F)nnc53)C4(C)C)n2)n1` [Example 352], the IC50 amounted to 15.2 nM.

`C[C@H](O)c1ccn(-c2nccc([C@@]34CC[C@@H](c5cc(-c6c(F)cccc6F)nnc53)C4(C)C)n2)n1` [Example 353] showed an IC50 of 10.8 nM.

For the compound `CC(C)(O)Cc1n[nH]c(-c2cncc([C@@]34CC[C@@H](c5cc(-c6c(F)cccc6F)nnc53)C4(C)C)n2)n1` [Example 354, 1-(5-(6-((5R,8S)-3-(2,6-difluorophenyl)-9,9-dimethyl-5,6,7,8-tetrahydro-5,8-methanocinnolin-8-yl)pyrazin-2-yl)-1H-1,2,4-triazol-3-yl)-2-methylpropan-2-ol], the IC50 came out at 20.7 nM.

`CC1(C)[C@H]2CC[C@]1(c1ccnc(C3CCN(C(=O)CO)CC3)n1)c1nnc(-c3c(F)cccc3F)cc12` [Example 355] showed an IC50 of 12.4 nM.

Take `CC1(C)[C@H]2CC[C@]1(c1ccnc(C3CCOCC3)n1)c1nnc(-c3c(F)cccc3F)cc12` [Example 356]: the IC50 amounted to 2.4 nM.

On to `CC(C)(C#N)c1n[nH]c(-c2cccc([C@@]34CC[C@@H](c5cc(-c6c(F)cccc6F)nnc53)C4(C)C)n2)n1` [Example 357, 2-(5-(6-((5R,8S)-3-(2,6-difluorophenyl)-9,9-dimethyl-5,6,7,8-tetrahydro-5,8-methanocinnolin-8-yl)pyridin-2-yl)-1H-1,2,4-triazol-3-yl)-2-methylpropanenitrile], for which the IC50 was 13 nM.

Compound `Cc1nc(CO)nn1-c1nccc([C@@]23CC[C@@H](c4cc(-c5c(F)cccc5F)nnc42)C3(C)C)n1` [Example 358] had an IC50 of 60.4 nM.

For the compound `CC1(C)[C@H]2CC[C@]1(c1ccnc(-n3cnc(=O)[nH]3)n1)c1nnc(-c3c(F)cccc3F)cc12` [Example 359], the IC50 worked out at 17.3 nM.

With `Cc1nc(=O)[nH]n1-c1nccc([C@@]23CC[C@@H](c4cc(-c5c(F)cccc5F)nnc42)C3(C)C)n1` [Example 360], the IC50 was determined as 127 nM.

`CC(C)(C)OC(=O)N1CCC[C@@H](c2nccc([C@@]34CC[C@@H](c5cc(-c6c(F)cccc6F)nnc53)C4(C)C)n2)C1` [Example 361] registered an IC50 of 20.1 nM.

As for `CC(C)(C)OC(=O)N1CCCC(c2nccc([C@@]34CC[C@@H](c5cc(-c6c(F)cccc6F)nnc53)C4(C)C)n2)C1` (stereo partly drawn) [Example 362], the IC50 worked out at 15.8 nM. This IC50 and that of the compound before are within 1.5-fold of each other.

Compound `Cc1ncnn1-c1ncc(F)c([C@@]23CC[C@@H](c4cc(-c5c(F)cccc5F)nnc42)C3(C)C)n1` [Example 363] came in with an IC50 of 33.5 nM.

`CC1(C)[C@H]2CC[C@]1(c1ccnc(C3CCCN(C(=O)CO)C3)n1)c1nnc(-c3c(F)cccc3F)cc12` (stereo partly drawn) [Example 364] displayed an IC50 of 50.4 nM.

The compound `CC1(C)[C@H]2CC[C@]1(c1cncc(-c3nc([C@H](O)C(F)(F)F)co3)n1)c1nnc(-c3c(F)cccc3F)cc12` [Example 366, (S)-1-(2-(6-((5R,8S)-3-(2,6-difluorophenyl)-9,9-dimethyl-5,6,7,8-tetrahydro-5,8-methanocinnolin-8-yl)pyrazin-2-yl)oxazol-4-yl)-2,2,2-trifluoroethanol] returned an IC50 of 3.5 nM.

The compound `Cc1ccn(-c2nccc([C@@]34CC[C@@H](c5cc(-c6c(F)cccc6F)nnc53)C4(C)C)n2)n1` [Example 367] had an IC50 of 3.1 nM.

For the compound `CC1(C)[C@H]2CC[C@]1(c1ccnc(-n3cnc(CO)n3)n1)c1nnc(-c3c(F)cccc3F)cc12` [Example 368], the concentration for half-maximal inhibition (IC50) was determined as 5.4 nM.

In the case of `CC1(C)[C@H]2CC[C@]1(c1cncc(-c3nc(CS(C)(=O)=O)co3)n1)c1nnc(-c3c(F)cccc3F)cc12` [Example 369, 2-(6-((5R,8S)-3-(2,6-difluorophenyl)-9,9-dimethyl-5,6,7,8-tetrahydro-5,8-methanocinnolin-8-yl)pyrazin-2-yl)-4-((methylsulfonyl)methyl)oxazole], the IC50 was 3.6 nM.

Take `CC(C)(O)c1ccc(-c2nccc([C@@]34CC[C@@H](c5cc(-c6c(F)cccc6F)nnc53)C4(C)C)n2)cn1` [Example 370]: the IC50 stood at 4.4 nM.

`CC(C)(O)c1coc(-c2cncc([C@@]34CC[C@@H](c5cc(-c6c(F)cccc6Cl)nnc53)C4(C)C)n2)n1` [Example 371, 2-(2-(6-((5R,8S)-3-(2-chloro-6-fluorophenyl)-9,9-dimethyl-5,6,7,8-tetrahydro-5,8-methanocinnolin-8-yl)pyrazin-2-yl)oxazol-4-yl)propan-2-ol] returned an IC50 of 3.3 nM.

In turn, `CC(C)(O)c1cc(-c2nccc([C@@]34CC[C@@H](c5cc(-c6c(F)cccc6F)nnc53)C4(C)C)n2)ccn1` [Example 372] had an IC50 of 2.6 nM. The IC50 values of the last two compounds are within 1.5-fold of each other.

Compound `CC1(C)[C@H]2CC[C@]1(c1ccnc(-c3ccc(C(N)=O)nc3)n1)c1nnc(-c3c(F)cccc3F)cc12` [Example 373] yielded an IC50 of 4 nM.

With `CC1(C)[C@H]2CC[C@]1(c1ccnc(-c3ccc(CO)nc3)n1)c1nnc(-c3c(F)cccc3F)cc12` [Example 374], the IC50 turned out to be 5.5 nM.

For the compound `Cc1ncn(-c2cncc([C@]34CC[C@H](c5cc(-c6c(F)cccc6F)nnc53)C4(C)C)n2)n1` [Example 375], the IC50 came to 10.4 nM.
